The structures appear in SMILES notation. Like-named read-outs stand apart in the source and are kept apart here. Starred links: 1 amine or outer side, 2 acyl side, 3 side chain; linkers in the order of their positions; H or OH if unused. Non-standard residues stand in square brackets, D forms with d. Residues, ends and D or L forms follow the SMILES beside them. Groups on a side chain read outwards from the residue. *: point of attachment. γGlu = O=C(O)[C@H](CCC(=O)[*:2])N[*:1]; Palmitoyl = CCCCCCCCCCCCCCCC(=O)*; Aib = CC(C)(N)C(=O)O

A word on the EC50: it is the concentration giving half of the maximal effect.

Assay [1] concerns the target T1, human glucagon-R (Homo sapiens, UniProt P47871).
T1 construct: expressed in transfected cells
In words: Glucagon receptor efficacy assay (cAMP formation, FlashPlate cAMP kit). Type of assay: cell-based. On the procedure:
(§1) The 5′-end primers additionally encoded a near Kozak consensus sequence to ensure efficient translation.
(§2) 48 hr after transfection, cells were seeded for limited dilution cloning and selected with 1 mg/ml G418 in the culture medium.
(cAMP levels reflect the balance of adenylyl cyclase and phosphodiesterase activity.)

For assay [2], the target named is T2, human GLP-1R (Homo sapiens, UniProt P43220).
T2 construct: expressed in transfected cells
T2 sequence (P43220 24-463): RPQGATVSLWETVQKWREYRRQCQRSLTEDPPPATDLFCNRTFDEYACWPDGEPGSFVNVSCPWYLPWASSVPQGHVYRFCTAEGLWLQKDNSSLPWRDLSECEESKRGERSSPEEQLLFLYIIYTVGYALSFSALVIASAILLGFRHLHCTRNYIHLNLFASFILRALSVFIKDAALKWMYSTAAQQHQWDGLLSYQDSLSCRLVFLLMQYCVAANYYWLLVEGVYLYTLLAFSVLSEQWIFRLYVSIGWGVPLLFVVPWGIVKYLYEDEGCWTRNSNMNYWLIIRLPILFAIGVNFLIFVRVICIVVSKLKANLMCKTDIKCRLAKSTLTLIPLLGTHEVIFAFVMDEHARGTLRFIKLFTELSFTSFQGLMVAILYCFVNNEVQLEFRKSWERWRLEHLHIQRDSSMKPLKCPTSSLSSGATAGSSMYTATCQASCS
Briefly: GLP-1 receptor efficacy assay (cAMP formation, FlashPlate cAMP kit). Type of assay: cell-based. The note with it: HEK293 cells expressing human GLP-1R; cAMP formed, 15 min at 37° C. On the procedure: as §1, §2

The mark [3] stands for this setting: HEK293 cells expressing human glucagon-R; cAMP formed, 15 min at 37° C.; read-out: EC50 nM) GluR.

T1 sequence (P47871 26-477): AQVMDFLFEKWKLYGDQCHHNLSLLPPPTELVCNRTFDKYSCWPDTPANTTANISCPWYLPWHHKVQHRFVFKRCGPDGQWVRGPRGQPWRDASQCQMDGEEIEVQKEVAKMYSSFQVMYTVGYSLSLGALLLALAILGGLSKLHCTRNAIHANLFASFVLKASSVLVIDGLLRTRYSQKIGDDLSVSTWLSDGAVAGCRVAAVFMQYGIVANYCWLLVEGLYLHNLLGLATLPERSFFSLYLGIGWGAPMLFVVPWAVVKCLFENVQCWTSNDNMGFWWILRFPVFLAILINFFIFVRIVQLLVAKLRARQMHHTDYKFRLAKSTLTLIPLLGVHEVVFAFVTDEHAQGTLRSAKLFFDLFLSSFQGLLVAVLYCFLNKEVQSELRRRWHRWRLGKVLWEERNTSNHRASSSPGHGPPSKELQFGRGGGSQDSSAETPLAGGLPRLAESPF

Turning to `CCCCCCCCCCCCCCCC(=O)N[C@@H](CCC(=O)NCCCC[C@H](NC(=O)[C@H](CO)NC(=O)[C@H](CC(=O)O)NC(=O)[C@H](CC(C)C)NC(=O)[C@H](Cc1ccc(O)cc1)NC(=O)[C@H](CCCCN)NC(=O)[C@H](CO)NC(=O)[C@H](Cc1ccc(O)cc1)NC(=O)[C@H](CC(=O)O)NC(=O)[C@H](CO)NC(=O)[C@@H](NC(=O)[C@H](Cc1ccccc1)NC(=O)[C@@H](NC(=O)CNC(=O)[C@H](Cc1c[nH]cn1)NC(=O)C(C)(C)NC(=O)[C@@H](N)Cc1c[nH]cn1)[C@@H](C)O)[C@@H](C)O)C(=O)N[C@@H](C)C(=O)N[C@@H](C)C(=O)N[C@@H](Cc1c[nH]cn1)C(=O)N[C@@H](CCC(=O)O)C(=O)N[C@@H](Cc1ccccc1)C(=O)N[C@H](C(=O)N[C@@H](CCC(=O)O)C(=O)N[C@@H](Cc1c[nH]c2ccccc12)C(=O)N[C@@H](CC(C)C)C(=O)N[C@@H](CC(C)C)C(=O)N[C@@H](CCC(=O)O)C(=O)N[C@@H](C)C(N)=O)C(C)C)C(=O)O` [Compound 5] (H-H[Aib]HGTFTSDYSKYLDSK([γGlu-Palmitoyl])AAHEFVEWLLEA-NH2), the values for the EC50 in assay [1] (setting [3]) and in assay [2] were 0.15 nM and 0.16 nM, respectively.

As to `CCCCCCCCCCCCCCCC(=O)N[C@@H](CCC(=O)NCCCC[C@H](NC(=O)[C@H](CO)NC(=O)[C@H](CC(=O)O)NC(=O)[C@H](CC(C)C)NC(=O)[C@H](Cc1ccc(O)cc1)NC(=O)[C@H](CCCCN)NC(=O)[C@H](CO)NC(=O)[C@H](Cc1ccc(O)cc1)NC(=O)[C@H](CC(=O)O)NC(=O)[C@H](CO)NC(=O)[C@@H](NC(=O)[C@H](Cc1ccccc1)NC(=O)[C@@H](NC(=O)CNC(=O)[C@@H](NC(=O)C(C)(C)NC(=O)[C@@H](N)Cc1c[nH]cn1)[C@@H](C)CC)[C@@H](C)O)[C@@H](C)O)C(=O)N[C@@H](C)C(=O)N[C@@H](C)C(=O)N[C@@H](Cc1c[nH]cn1)C(=O)N[C@@H](CC(=O)O)C(=O)N[C@@H](Cc1ccccc1)C(=O)N[C@H](C(=O)N[C@@H](CCC(=O)O)C(=O)N[C@@H](Cc1c[nH]c2ccccc12)C(=O)N[C@@H](CC(C)C)C(=O)N[C@@H](CC(C)C)C(=O)N[C@@H](CO)C(=O)N[C@@H](C)C(N)=O)C(C)C)C(=O)O` [Compound 19] (H-H[Aib]IGTFTSDYSKYLDSK([γGlu-Palmitoyl])AAHDFVEWLLSA-NH2), the EC50 in assay [1] (earlier determination, replaced by redetermination in Table 1, read-out: EC50 GluR, earlier determined value) stood at 3 nM; in assay [2] it was 0.16 nM.

With `CCCCCCCCCCCCCCCC(=O)N[C@@H](CCC(=O)NCCCC[C@H](NC(=O)[C@H](CO)NC(=O)[C@H](CC(=O)O)NC(=O)[C@H](CC(C)C)NC(=O)[C@H](Cc1ccc(O)cc1)NC(=O)[C@H](CCCCN)NC(=O)[C@H](CO)NC(=O)[C@H](Cc1ccc(O)cc1)NC(=O)[C@H](CC(=O)O)NC(=O)[C@H](CO)NC(=O)[C@@H](NC(=O)[C@H](Cc1ccccc1)NC(=O)[C@@H](NC(=O)CNC(=O)CNC(=O)C(C)(C)NC(=O)[C@@H](N)Cc1c[nH]cn1)[C@@H](C)O)[C@@H](C)O)C(=O)N[C@@H](C)C(=O)N[C@@H](C)C(=O)N[C@@H](Cc1c[nH]cn1)C(=O)N[C@@H](CC(=O)O)C(=O)N[C@@H](Cc1ccccc1)C(=O)N[C@H](C(=O)N[C@@H](CCC(=O)O)C(=O)N[C@@H](Cc1c[nH]c2ccccc12)C(=O)N[C@@H](CC(C)C)C(=O)N[C@@H](CC(C)C)C(=O)N[C@@H](CO)C(=O)N[C@@H](C)C(N)=O)C(C)C)C(=O)O` [Compound 20] (H-H[Aib]GGTFTSDYSKYLDSK([γGlu-Palmitoyl])AAHDFVEWLLSA-NH2), the EC50 was 26 nM in assay [1] (setting [3]) and 0.21 nM in assay [2].

Regarding `CCCCCCCCCCCCCCCC(=O)N[C@@H](CCC(=O)NCCCC[C@H](NC(=O)[C@H](CO)NC(=O)[C@H](CCC(=O)O)NC(=O)[C@H](CC(C)C)NC(=O)[C@H](Cc1ccc(O)cc1)NC(=O)[C@H](CCCCN)NC(=O)[C@H](CO)NC(=O)[C@H](Cc1ccc(O)cc1)NC(=O)[C@H](CC(=O)O)NC(=O)[C@H](CO)NC(=O)[C@@H](NC(=O)[C@H](Cc1ccccc1)NC(=O)[C@@H](NC(=O)CNC(=O)[C@H](Cc1c[nH]cn1)NC(=O)C(C)(C)NC(=O)[C@@H](N)Cc1c[nH]cn1)[C@@H](C)O)[C@@H](C)O)C(=O)N[C@@H](C)C(=O)N[C@@H](C)C(=O)N[C@@H](CCC(=O)O)C(=O)N[C@@H](CCC(=O)O)C(=O)N[C@@H](Cc1ccccc1)C(=O)N[C@H](C(=O)N[C@@H](CCC(=O)O)C(=O)N[C@@H](Cc1c[nH]c2ccccc12)C(=O)N[C@@H](CC(C)C)C(=O)N[C@@H](CC(C)C)C(=O)N[C@@H](CCC(=O)O)C(=O)N[C@@H](C)C(N)=O)C(C)C)C(=O)O` [Compound 31] (H-H[Aib]HGTFTSDYSKYLESK([γGlu-Palmitoyl])AAEEFVEWLLEA-NH2), the EC50 is 0.15 nM in assay [1] (setting [3]) and 0.09 nM in assay [2].
